Measurements reported in patent publication US12162855B2, “Tetrahydroquinolino derivatives for the treatment of metastatic and chemoresistant cancers” (THE TRUSTEES OF PRINCETON UNIVERSITY, priority 2018, dated 2024).

Tests used:
[1] = test system: SUM159-M1a cells; assay: Bone metastasis xenograft, SUM159-M1a cells by intracardiac injection, BLI; assay type: in vivo, mouse; details: MBE1 IP in conjunction with paclitaxel, intracardiac injection model
Description: All xenograft experiments were conducted on 8-week old female mice (athymic Nu/Nu, or NOD/SCID Gamma). Xenograft experiments were conducted using 125,000 SUM159-M1a cells in 100 μL PBS for tail vein or intracardiac injection. Mice were randomized following injection. Bioluminescent imaging (BLI) was conducted using the IVIS 200 system and retroorbital luciferin injection. For drug treatment, MBE1 (prepared as above) was given to mice via IP injection in conjunction with paclitaxel (5 mg/mL in 10% ethanol, 10% Kolliphor EL, 80% PBS) at the time intervals and dosages indicated in FIG. 5A (tail vein injection) and FIG. 6A (intracardiac injection).
FIG. 5B is a line graph of lung metastasis, as measured using bioluminescence imaging (BLI), versus time (days), and compares lung metastasis in the presence and absence of MBE1 in the mice from the experiment outlined in FIG. 5A. FIG. 6B is a line graph of bone metastasis, as measured using BLI, versus time (days), and compares bone metastasis in the presence and absence of MBE1 in the mice from the experiment outlined in FIG. 6A.

[2] = test system: bone marrow cells; assay: Ex vivo analysis of ALDH activity in murine lymphocytes (ALDEFLUOR); assay type: cell-based, mouse
Description: Bone marrow cells were collected from 12-week old […] mice via tibia and femur flush with PBS and were passed through a 100-μm cell sieve. Thymocytes and spleenocytes were isolated from corresponding tissues and were isolated by physical disruption against a 100 μm cell sieve. Cells were washed via centrifugation/resuspension and then suspended at 10^7 cells/mL. The ALDEFLUOR™ assay with or without MBE1 was then conducted on these cells as described except with the addition of either […] (Biolegend #100308), anti-CD11c (BD Pharmigen #561119), anti-CD45 (eBioscience 30-F11), or anti-CD317 (Biolegend 129c1) during the incubation period at 1:200.
Similar results (not shown) were obtained in other populations tested, including CD45-positive and CD3e-positive (CD45+CD3e+) and CD11c-positive and CD317-positive (CD11+CD317+).

| SMILES | bone metastasis by BLI (FIG. 6B) [1] | effect on ALDEFLUOR activity of CD11c-positive bone marrow cells (FIG. 4B) ([2]; murine bone marrow) | effect on ALDEFLUOR activity of CD45-positive bone marrow cells (FIG. 4A) ([2]; murine bone marrow) | effect on ALDEFLUOR activity of all populations tested (incl. CD45+CD3e+, CD11+CD317+) ([2]; murine cells) |
| --- | --- | --- | --- | --- |
| CCc1cnccc1C(=O)Nc1cc2c(cc1F)NC(=O)CC2 [MBE1, 3-ethyl-N-(7-fluoro-2-oxo-1,2,3,4-tetrahydroquinolin-6-yl)isonicotinamide] | effective therapeutic to treat established metastatic disease | – | – | – |
| CCc1ccccc1C(=O)Nc1cc2c(cc1F)NC(=O)CC2 [MBE1.5, 2-ethyl-N-(7-fluoro-2-oxo-1,2,3,4-tetrahydroquinolin-6-yl)benzamide] | – | not affected | not affected | not affected |
